# Data as given in ChEMBL document CHEMBL1777790, “Discovery of novel HCV polymerase inhibitors using pharmacophore-based virtual screening” (Bioorg Med Chem Lett, 2011).
# The source made the active and inactive calls. The rule behind the calls is not given here.
# Experiments:
# [1] = Cytotoxicity against human HuH7 cells; format: cell-based, Huh-7
# [2] = tested on: Hepatitis C virus subtype 1b; assay: Inhibition of HCV genotype 1b NS5B RNA dependent RNA polymerase activity at 20 uM
# [3] = tested on: Hepatitis C virus; assay: Antiviral activity against HCV in human HuH7 cells by replicon assay; format: functional, organism-based; conditions: Huh-7; for Activity: Hepacivirus hominis
Structure (SMILES),CC50 [1] [µM],inhibition [2],Activity [3],EC50 [3] [µM]
CC(=O)Nc1ccc2nc(-c3ccccn3)[nH]c2c1,24.8,,,
O=C(Nc1ccc(F)cc1)c1ccc(Cl)c(S(=O)(=O)N2CCOCC2)c1,15.6,,,
O=C(Nc1ccc2[nH]c(-c3ccc(Cl)cc3)nc2c1)C1C2CC3CC(C2)CC1C3 (centres undefined),< 5,inactive,inactive,
Cn1ncc(Cl)c1C(=O)Nc1ccc2[nH]c(-c3ccccc3)nc2c1,< 5,14%,inactive,
CCCS(=O)(=O)c1ccc2[nH]c(NC(=O)OC)nc2c1,< 5,,,
O=C(O)CNC(=O)/C(=C\c1cccc([N+](=O)[O-])c1)NC(=O)c1ccc(Br)o1,> 50,,,
O=C(Nc1ccc(NC(=O)c2cccs2)cc1Cl)c1ccco1,18,,,
C=C(C)C(=O)Nc1ccc(NC(=O)C(=C)C)c(OC(F)(F)C(F)F)c1,29,48%,inactive,
O=C(COc1ccccc1Cl)Nc1ccc(Oc2ccc(F)cc2)c(C(F)(F)F)c1,14.2,,,
Cn1cc([N+](=O)[O-])c(C(=O)Nc2ccc3[nH]c(-c4ccccc4)nc3c2)n1,17.3,37.7%,,8.3
COc1cc(/C=N/Nc2nc3ccccc3s2)ccc1OC(=O)c1ccco1,30.5,,,
O=C1NN(c2ccc(Cl)c(Cl)c2)C(=O)/C1=C/c1ccc(N2CCOCC2)c([N+](=O)[O-])c1,27,13%,,
Cc1ccc(C(=O)Nc2ccc(F)cc2)cc1S(=O)(=O)N1CCOCC1,16.5,,,
CCOc1cc(NC(=O)CCl)c(OCC)cc1NC(C)=O,> 50,,,
Cn1ncc([N+](=O)[O-])c1C(=O)Nc1ccc2[nH]c(-c3ccccc3)nc2c1,34.5,54%,,2.16
COC(=O)c1ccc(C(=O)OC)c(NS(C)(=O)=O)c1,43.5,,,

Structure (SMILES),CC50 [1] [µM],inhibition [2],Activity [3],EC50 [3] [µM]
O=C(Nc1cccc(Br)c1)c1ccc(Br)c(S(=O)(=O)Nc2ccccn2)c1,> 50,,,
Nc1ccc(C(=O)Nc2ccc3[nH]c(-c4ccccc4)nc3c2)cc1,< 5,19.7%,inactive,
CC(=O)Nc1ccc2[nH]c(-c3ccccn3)nc2c1,,,inactive,
C=CCNS(=O)(=O)c1ccc(OC)c(OC)c1,48.6,,,
O=C(Nc1ccc2[nH]c(-c3cccnc3)nc2c1)c1ccco1,20,,inactive,
CC(=O)Nc1ccc2[nH]c(-c3cccs3)nc2c1,20,18.5%,inactive,
COC(=O)c1ccc(C(=O)Nc2ccc3[nH]c(-c4ccccc4)nc3c2)cc1,< 5,90%,inactive,
CS(=O)(=O)N(Cc1ccccc1)c1ccc(C(=O)NCc2ccco2)cc1,32.7,8%,,
CC(=O)Nc1ccc2[nH]c(-c3ccco3)nc2c1,25,42%,inactive,
CCC(=O)Nc1ccc(SC#N)c(C(F)(F)F)c1,45.8,9%,,
O=C(Nc1ccc2[nH]c(-c3ccccc3)nc2c1)c1ccco1,< 5,inactive,inactive,
O=C(Nc1ccc2[nH]c(-c3ccccc3)nc2c1)c1ccccc1,20,20%,inactive,
O=C(Nc1ccc2[nH]c(-c3ccccn3)nc2c1)c1ccco1,20,42.4%,inactive,
C=CCNC(=O)c1ccc(CN(c2cccc(Cl)c2)S(C)(=O)=O)cc1,33,,,
CCOc1cc(NC(=O)c2ccco2)c(OCC)cc1NC(=O)CC,36.1,,,
